Test results reported in patent publication US20240051914A1, “THE HEXADECANE TROMETHAMINE COMPOUND, ITS SYNTHESIS METHOD AND ITS APPLICATION IN ANTITUMOR AND ANTIFUNGAL ASPECTS” (Wuxi No.2 People's Hospital, priority 2021, published 2024).
≈ marks a conversion by molar mass, not a printed value.

Assays:
Assay type in all cases: cell-based
[1] = system: Candida tropicalis 191529; test: Anti-fungal function detection, MIC by dilution in RPMI1640; conditions: Clinical drug-resistant fungal strain Candida tropicalis 191529, incubated for 35 and 24 h, read-out: Minimum Inhibitory Concentration, MIC
Protocol: (§1) Test Method: The hexadecyl tromethamine hydrochloride salt solution was semi-diluted to five concentration gradients (100 μg/ml, 50 μg/ml, 25 μg/ml, 12.5 μg/ml and 6.25 μg/ml) by RPMI1640 fluid nutrient medium. 100 μl of every gradient solution was added in the 96-well plate for standby application. Standard fungal strain and clinical drug-resistant fungal strain in table 2 were chosen as the experimental fungus. The activation of the experimental fungus was obtained through that the experimental fungus were cultivated for 48 h at 30° C. The activated experimental fungus was matched to fungal suspension. Count and adjust the concentration using blood counting chamber. The moderate fungal suspension were added into RPMI1640 fluid nutrient medium to 0.5-2.5×10^3 cfμ/ml of final working concentration. 100 μl of above fungal suspension was added into the above 96-well plate with the hexadecyl tromethamine hydrochloride salt solution. Two parallel wells were set for each concentration gradient compound of each strain. Blank medium and blank medium with fungal solution were set as control simultaneously.
as §1, with “tromethamine” for “tromethamine hydrochloride salt”
as §1, with “phosphate” for “hydrochloride salt”, “µg/ml)” for “μg/ml)”
(§2) 2. The Anti-Fungal Function Detection of the Hexadecyl Tromethamine Benzene Sulfonate Test Method: The hexadecyl tromethamine benzene sulfonate solution was semi-diluted to five concentration gradients (100 μg/ml, 50 μg/ml, 25 μg/ml, 12.5 μg/ml and 6.25 µg/ml) by RPMI1640 fluid nutrient medium. 100 μl of every gradient solution was added in the 96-well plate for standby application. Standard fungal strain and clinical drug-resistant fungal strain in table 2 were chosen as the experimental fungus. The activation of the experimental fungus was obtained through that the experimental fungus were cultivated for 48 h at 30° C. The activated experimental fungus was matched to fungal suspension. […]

Candida krusei 185429 = test: as above; conditions: Pichia kudriavzevii, Standard fungal strain Candida krusei 185429, incubated for 35 and 24 h, read-out: Minimum Inhibitory Concentration, MIC
Protocol: as §1
as §1, with “tromethamine” for “tromethamine hydrochloride salt”
as §1, with “phosphate” for “hydrochloride salt”, “µg/ml)” for “μg/ml)”
as §2

Candida glabrata 337348 = test: as above; conditions: for MIC: Nakaseomyces glabratus, 337348, Standard fungal strain Candida glabrata 337348, incubated for 35 and 24 h, read-out: Minimum Inhibitory Concentration, MIC
Protocol: as §1
as §1, with “tromethamine” for “tromethamine hydrochloride salt”
as §1, with “phosphate” for “hydrochloride salt”, “µg/ml)” for “μg/ml)”
as §2

[2] = system: Candida lusitaniae 340928; test: as above; conditions: Clavispora lusitaniae, Standard fungal strain Candida lusitaniae 340928, incubated for 35 and 24 h, read-out: Minimum Inhibitory Concentration, MIC
Protocol: as §1
as §1, with “tromethamine” for “tromethamine hydrochloride salt”
as §1, with “phosphate” for “hydrochloride salt”, “µg/ml)” for “μg/ml)”
as §2

[3] = system: Candida parapsilosis 191344; test: as above; conditions: for MIC: Lodderomyces parapsilosis, 191344, Clinical drug-resistant fungal strain Candida parapsilosis 191344, incubated for 35 and 24 h, read-out: Minimum Inhibitory Concentration, MIC
Protocol: as §1
as §1, with “tromethamine” for “tromethamine hydrochloride salt”
as §1, with “phosphate” for “hydrochloride salt”, “µg/ml)” for “μg/ml)”
as §2

[4] = system: Candida tropicalis 191327; test: as above; conditions: Clinical drug-resistant fungal strain Candida tropicalis 191327, incubated for 35 and 24 h, read-out: Minimum Inhibitory Concentration, MIC
Protocol: as §1
as §1, with “tromethamine” for “tromethamine hydrochloride salt”
as §1, with “phosphate” for “hydrochloride salt”, “µg/ml)” for “μg/ml)”
as §2

SGC-7901 = test: Antitumor function detection, CCK-8 inhibition ratio; conditions: SGC-7901 cells, 72 hours
Protocol: (§3) Test Method: The logarithmic phase cells were seeded in 96-well plates with 3,000 cells per well/100 μl of density. After the cells were adhered, 100 μl of the test compounds with different concentrations were added. Design 6-8 concentration gradients. Set five parallel wells in per group and set the control group. After the compound and tumor cells were incubated for 72 hours, 10 μl of CCK-8 solution was added in per well. After the cells were incubated for 1-2 hours in the incubator, the optical density (OD) of per well was counted by Universal Microplate Spectrophotometer to calculate the inhibition ratio: inhibition ratio (IR %)=(1−TOD/COD)×100%, TOD: the mean OD of drug administration group, COD: the mean OD of solvent control. The dose-response curve was plotted in accordance to the drugs with different concentrations and the inhibition ratio of cells to obtain the Inhibitory concentration of drug (IC50). Test Method: The logarithmic phase cells were seeded in 96-well plates with 3,000 cells per well/100 l of density. After the cells were adhered, 100 l of the test compounds with different concentrations were added. Design 6-8 concentration gradients. Set five parallel wells in each group and set the control group. After the compound and tumor cells were incubated for 72 hours, 10 µl of CCK-8 solution was added in each well. After the cells were incubated for 1-2 hours in the incubator, the optical density (OD) of per well was counted by Universal Microplate Spectrophotometer to calculate the inhibition ratio: inhibition ratio (IR %)=(1−TOD/COD)×100%, TOD: the mean OD of drug administration group, COD: the mean OD of solvent control. The dose-response curve was plotted in accordance to the drugs with different concentrations and the inhibition ratio of cells to obtain the Inhibitory concentration of drug (IC50). Test Method: The logarithmic phase cells were seeded in 96-well plates with 3,000 cells per well/100 μl of density. After the cells were adhered, 100 μl of the test compounds with different concentrations were added. Design 6-8 concentration gradients. Set five parallel wells in each group and set the control group. After the compound and tumor cells were incubated for 72 hours, 10 µl of CCK-8 solution was added in each well. After the cells were incubated for 1-2 hours in the incubator, the optical density (OD) of per well was counted by Universal Microplate Spectrophotometer to calculate the inhibition ratio: inhibition ratio (IR %)=(1−TOD/COD)×100%, TOD: the mean OD of drug administration group, COD: the mean OD of solvent control. The dose-response curve was plotted in accordance to the drugs with different concentrations and the inhibition ratio of cells to obtain the Inhibitory concentration of drug (IC50). Test Method: The logarithmic phase cells were seeded in 96-well plates with 3,000 cells per well/100 μl of density. After the cells were adhered, 100 μl of the test compounds with different concentrations were added. Design 6-8 concentration gradients. Set five parallel wells in each group and set the control group. After the compound and tumor cells were incubated for 72 hours, 10 µl of CCK-8 solution was added in each well. After the cells were incubated for 1-2 hours in the incubator, the optical density (OD) of per well was counted by Universal Microplate Spectrophotometer to calculate the inhibition ratio: inhibition ratio (IR %)=(1−TOD/COD)×100%, TOD: the mean OD of drug administration group, COD: the mean OD of solvent control. The dose-response curve was plotted in accordance to the drugs with different concentrations and the inhibition ratio of cells to obtain the Inhibitory concentration of drug (IC50).

AGS = test: as above; conditions: AGS cells, 72 hours
Protocol: as §3

[5] = system: gastric cancer cell HGC-27; test: as above; conditions: HGC-27 cells; for The inhibition ratio (%): 72 hours, CCK-8
Protocol: as §3

MKN-45 = test: as above; conditions: MKN-45 cells, 72 hours
Protocol: as §3

| MIC [1] | MIC (Candida krusei 185429) | MIC (Candida glabrata 337348) | MIC [2] | MIC [3] | MIC [4] | Compound | The inhibition ratio (%) (SGC-7901; 2 μM) | The inhibition ratio (%) (SGC-7901; 20 μM) | The inhibition ratio (%) (AGS; 2 μM) | The inhibition ratio (%) (AGS; 20 μM) | The inhibition ratio (%) ([5]; 2 μM) | The inhibition ratio (%) ([5]; 20 μM) | The inhibition ratio (%) (MKN-45; 2 μM) | The inhibition ratio (%) (MKN-45; 20 μM) | other results |
| --- | --- | --- | --- | --- | --- | --- | --- | --- | --- | --- | --- | --- | --- | --- | --- |
| 25 µg/mL | 50 µg/mL | 25 µg/mL | 25 µg/mL | 25 µg/mL | 25 µg/mL | CCCCCCCCCCCCCCCCNC(CO)(CO)CO.Cl [2-(hexadecylamino)-2-(hydroxymethyl) propane-1,3-diol hydrochloride] | 21% | 100% | 42% | 99% | 72% | 101% | 31% | 99% | inhibitory effect (level reached on the inhibition curve, FIG. 3) ([5]; rises rapidly when the logarithmic value of compound concentration reached 3 nM): 100% |
| 50 µg/mL | 100 µg/mL | 25 µg/mL | 25 µg/mL | 50 µg/mL | 50 µg/mL | CCCCCCCCCCCCCCCCNC(CO)(CO)CO.O=S(=O)(O)c1ccccc1 [hexadecyl tromethamine benzene sulfonate] | 23% | 98% | 38% | 95% | 62% | 96% | 34% | 100% | – |
| – | – | – | – | – | – | CCCCCCCCCCCCCCCCNC(CO)(CO)CO [hexadecyl tromethamine phosphate] | – | – | – | – | – | – | – | – | Minimum Inhibitory Concentration, MIC (Candida glabrata 337348; Standard fungal strain Candida glabrata 337348, incubated for 35 and 24 h, phosphate): 50 µg/mL; Minimum Inhibitory Concentration, MIC ([3]; Clinical drug-resistant fungal strain Candida parapsilosis 191344, incubated for 35 and 24 h, phosphate): 50 µg/mL; The inhibition ratio (%) (SGC-7901; 2 μM, phosphate): 25%; The inhibition ratio (%) (SGC-7901; 20 μM, phosphate): 101%; The inhibition ratio (%) (AGS; 2 μM, phosphate): 44%; The inhibition ratio (%) (AGS; 20 μM, phosphate): 100%; The inhibition ratio (%) ([5]; 2 μM, phosphate): 68%; The inhibition ratio (%) ([5]; 20 μM, phosphate): 99%; The inhibition ratio (%) (MKN-45; 2 μM, phosphate): 29%; The inhibition ratio (%) (MKN-45; 20 μM, phosphate): 97% |
| 25 µg/mL (≈ 72.3 µM) | 50 µg/mL (≈ 145 µM) | 25 µg/mL (≈ 72.3 µM) | 25 µg/mL (≈ 72.3 µM) | 25 µg/mL (≈ 72.3 µM) | 25 µg/mL (≈ 72.3 µM) | CCCCCCCCCCCCCCCCNC(CO)(CO)CO [hexadecyl tromethamine] | 24% | 102% | 43% | 99% | 72% | 100% | 32% | 98% | – |
